Measured values as given in US20210196720A1 (UROVANT SCIENCES GMBH, priority 2018, published 2021).
Where “and” joins values, the source holds several entries; their conditions need not be identical. Equal entries are not always repeated. Where two headings read alike, the source gives them in different places.

Columns and labels:
[1] = Multiple rising dose Phase 1 PK, healthy subjects, day 14 (young males unless stated); type: in vivo, human; conditions: for AUC(0-t) / Cmax / half-life: plasma; for AUC(0-t): read-out: AUC0-24; for Cmax: read-out: Cmax; for half-life: read-out: t1/2 (converted)
Excerpt: The steady state AUC geometric mean accumulation ratios were ˜2 in young male subjects and ˜2.8 in elderly subjects (male and female).
Although exposures were similar in middle-aged males when compared to young males, plasma concentrations were higher in elderly compared to middle-aged and young subjects. […] Furthermore, the steady state AUC geometric mean accumulation ratios were ˜2 in young males and ˜2.8 in the elderly.

[2] = Phase 2b OAB study, cardiovascular safety (HR, SBP, DBP, orthostatic AEs); type: in vivo, human
Excerpt: None led to discontinuation. The overall incidence of orthostatic symptoms was low.
Small differences in the percent of subjects exceeding categorical heart rate and blood pressure thresholds for vibegron were similar to those in the tolterodine arm.

[3] = Phase 2b OAB study, adverse events
Excerpt: A placebo group was included in the main study, and a group that received tolterodine monotherapy was included in the main study and in the extension.

[4] = Dose-Cmax and dose-AUC models / simulations for 75 mg; parameters: species or system human
Protocol: In order to contextualize PK parameters of a 75 mg dose, dose-Cmax and dose-AUC models were created using data from Phase 1 studies.

[5] = Human plasma protein binding; type: in vitro ADME
[6] = Aqueous vs non-aqueous tablet bioequivalence, 50 mg; type: in vivo, human
Excerpt: An open-label, single-dose, randomized, two-period, two-treatment, two-sequence, crossover Phase 1 study evaluated the relative bioequivalence of two types of tablets with slightly different composition: aqueous tablet (test) and non-aqueous tablet (reference).

Phase 1 safety data = type: in vivo; conditions: Phase 1, single 2-600 mg, multiple 25-400 mg
Excerpt: Safety data from 16 Phase 1 studies, which include 15 completed Phase 1 studies and 1 study that was terminated early (this study was terminated for reasons unrelated to efficacy or safety) was collected.

[7] = male, human, oral, 150 mg, 150 mg QD
[8] = male, human, oral, 200 mg, 200 mg QD, Japanese
[9] = male, human, oral, 200 mg, 200 mg QD
[10] = male, human, oral, 300 mg, 300 mg QD
[11] = male, human, oral, 400 mg, 400 mg QD
[12] = 75 mg, log-log regression of multiple-dose exposures

O=C(Nc1ccc(C[C@@H]2CC[C@H]([C@H](O)c3ccccc3)N2)cc1)[C@@H]1CCc2nccc(=O)n21 [Vibegron, (6S)-N-[4-[[(2S,5R)-5-[(R)-hydroxy(phenyl)methyl]pyrrolidin-2-yl]methyl]phenyl]-4-oxo-7,8-dihydro-6H-pyrrolo[1,2-a]pyrimidine-6-carboxamide]
AUC(0-t) [1, 7]: 2280 ± 1140 ng·h/mL | Cmax [1, 7]: 305 ± 215 ng/mL | half-life [1, 7]: 79.2 ± 9.2 h | AUC(0-t) [1, 8]: 4370 ± 618 ng·h/mL | Cmax [1, 8]: 631 ± 154 ng/mL | half-life [1, 8]: 59.5 ± 1.9 h | AUC(0-t) [1, 9]: 3200 ± 1120 ng·h/mL | Cmax [1, 9]: 313 ± 168 ng/mL | half-life [1, 9]: 64.7 ± 6.5 h | AUC(0-t) [1, 10]: 6980 ± 1040 ng·h/mL | Cmax [1, 10]: 733 ± 164 ng/mL | half-life [1, 10]: 61.7 ± 7.3 h | AUC(0-t) [1, 11]: 10500 ± 2140 ng·h/mL | Cmax [1, 11]: 1400 ± 257 ng/mL | half-life [1, 11]: 58.9 ± 5.9 h | CL renal ([1]; male, human, urine, oral, young males, all dose levels, read-out: renal clearance CLR at steady state): 150 to 187 mL/min | time to steady state ([1]; once daily dosing): ≤ 7 days | AUC higher in females than males ([1]; regardless of age): 50% | DBP change from baseline, mean (95% CI) max, week 1 to 8 ([2]; 3 mg): 5.03 (3.92, 6.15) mm Hg | DBP change from baseline, mean (95% CI), week 1 ([2]; 3 mg): −0.37 (−1.69, 0.95) mm Hg | HR change from baseline, mean (95% CI) maximum, week 1 to 8 ([2]; 3 mg): 5.57 (4.25, 6.90) bpm | HR change from baseline, mean (95% CI), week 1 ([2]; 3 mg): 0.36 (−0.90, 1.62) bpm | SBP change from baseline, mean (95% CI) maximum, week 1 to 8 ([2]; 3 mg): 7.14 (5.18, 9.10) mm Hg | SBP change from baseline, mean (95% CI), week 1 ([2]; 3 mg): −0.35 (−2.34, 1.65) mm Hg | DBP change from baseline, mean (95% CI) max, week 1 to 8 ([2]; 15 mg): 6.37 (5.20, 7.53) mm Hg | DBP change from baseline, mean (95% CI), week 1 ([2]; 15 mg): 0.03 (−1.52, 1.59) mm Hg | HR change from baseline, mean (95% CI) maximum, week 1 to 8 ([2]; 15 mg): 6.56 (5.20, 7.92) bpm | HR change from baseline, mean (95% CI), week 1 ([2]; 15 mg): 0.35 (−1.15, 1.85) bpm | SBP change from baseline, mean (95% CI) maximum, week 1 to 8 ([2]; 15 mg): 8.93 (7.18, 10.67) mm Hg | SBP change from baseline, mean (95% CI), week 1 ([2]; 15 mg): −0.34 (−2.46, 1.78) mm Hg | subjects with orthostatic related AEs ([2]; 15 mg): 0.3% | DBP change from baseline, mean (95% CI) max, week 1 to 8 ([2]; 50 mg): 4.19 (3.10, 5.29) mm Hg | DBP change from baseline, mean (95% CI), week 1 ([2]; 50 mg): −0.70 (−2.07, 0.67) mm Hg | HR change from baseline, mean (95% CI) maximum, week 1 to 8 ([2]; 50 mg): 5.49 (4.28, 6.69) bpm | HR change from baseline, mean (95% CI), week 1 ([2]; 50 mg): 0.29 (−0.88, 1.46) bpm | SBP change from baseline, mean (95% CI) maximum, week 1 to 8 ([2]; 50 mg): 7.01 (5.31, 8.70) mm Hg | SBP change from baseline, mean (95% CI), week 1 ([2]; 50 mg): −0.79 (−2.65, 1.08) mm Hg | SBP and DBP change, difference from placebo ([2]; 50 mg and 100 mg, week 1 and maximum over 8 weeks): < 1 mm Hg | DBP change from baseline, mean (95% CI) max, week 1 to 8 ([2]; 100 mg): 4.80 (3.88, 5.72) mm Hg | DBP change from baseline, mean (95% CI), week 1 ([2]; 100 mg): −0.69 (−1.72, 0.34) mm Hg | HR change from baseline, mean (95% CI) maximum, week 1 to 8 ([2]; 100 mg): 6.12 (5.10, 7.15) bpm | HR change from baseline, mean (95% CI), week 1 ([2]; 100 mg): 0.35 (−0.69, 1.38) bpm | SBP change from baseline, mean (95% CI) maximum, week 1 to 8 ([2]; 100 mg): 6.51 (5.09, 7.93) mm Hg | SBP change from baseline, mean (95% CI), week 1 ([2]; 100 mg): −0.77 (−2.22, 0.68) mm Hg | subjects with orthostatic related AEs ([2]; 100 mg): 1.1% | HR mean maximum change over 8 weeks, difference from placebo ([2]; in vivo): < 2 bpm | tolerability ([3]; Phase 2b, 3 to 100 mg): generally well tolerated | ≥1 AE, subjects ([3]; first 12 weeks, dose group by column): 107 n | frequency of injuries ([3]; in vivo): 0.9% | AUC of 75 mg lower than 200 mg single dose [4]: ~2 fold | AUC of 75 mg lower than 400 mg single dose [4]: ~6 fold | Cmax of 75 mg lower than 200 mg single dose [4]: approximately 3.3 fold | Cmax of 75 mg lower than 400 mg single dose [4]: ~9.2 fold | reduction in Cmax ([4]; 75 mg vs 100 mg): ~40% | calculated AUC (mean±SD) [4, 12]: 1140 ± 476 ng·h/mL | calculated Cmax (mean±SD) [4, 12]: 120 ± 74.7 ng/mL and 120 ng/mL | Cmax ([4]; 100 mg): 206 ng/mL | increase in Cmax ([4]; dose increase from 50 to 100 mg): ~3 fold | bound to human plasma proteins [5]: approximately 49% | unbound in human plasma [5]: 49% | AUC0-inf GMR test/reference ([6]; 50 mg): 100.2% | Cmax GMR test/reference ([6]; 50 mg): 107.7% | AUC(0-inf) ([6]; 50 mg test, aqueous tablet (PMFII)): 671 ng·h/mL | Cmax ([6]; human, plasma, po, 50 mg, 50 mg reference, non-aqueous tablet (PMF1)): 38 ng/mL | Cmax ([6]; human, plasma, po, 50 mg, 50 mg test, aqueous tablet (PMFII)): 41 ng/mL | AUC(0-inf) ([6]; human, plasma, po, 50 mg, read-out: AUC0-inf): 671 ng·h/mL | tolerability (Phase 1 safety data): generally well tolerated
